“Also recorded” adds a separate entry of the source.
System: normal human dermal fibroblasts (NHDF pool PF2)
Experiment: Incorporation of thymidine, proline and leucine in macromolecules neosynthesized by fibroblasts in culture
Format: cell-based
Conditions: for Leucine incorporation / Proline incorporation / Thymidine incorporation: NHDF in vitro culture
Protocol: A study was performed with the aim of evaluating, via a screening method, the effects of the compounds on the growth of fibroblasts and the synthesis of the major constituents of the extracellular matrix. The technique made it possible to study and evaluate the advantage of taurine on this cell metabolism (T. Shigematsu et al. Biochimica et Biophysica Acta 1200 (1994) 79-83).
A pool of normal human dermal fibroblasts (NHDF pool PF2, used at the eighth passage) was cultured under standard conditions in a medium: DMEM, 2 mM L-glutamine, 50 IU/ml/50 […] penicillin/streptomycin, 0.5% fetal calf serum.
Taurine was tested at concentrations of 10 mM and 1 mM in a sterile culture medium, against an untreated control blank.
The figures in bold are those for which there is a significant variation (stat. sign. meaning statistical significance: p<0.005). The results are expressed as a percentage of the control.

[1] = at the two concentrations (1 mM, 10 mM), fibroblasts

Structure (SMILES): NCCS(=O)(=O)O [taurine, Taurine]
- Leucine incorporation (1 mM taurine): 100 % control
- Proline incorporation (1 mM taurine): 88 % control
- Thymidine incorporation (1 mM taurine): 89 % control
- Leucine incorporation (10 mM taurine): 105 % control
- Proline incorporation (10 mM taurine): 87 % control
- Thymidine incorporation (10 mM taurine): 90 % control
- incorporation of leucine (representative of noncollagen protein synthesis), in words [1]: did not significantly modify; also recorded: without impairing that of leucine
- incorporation of proline by the fibroblasts, in words [1]: did significantly inhibit; also recorded: reduces the incorporation of proline
- incorporation of thymidine (representative of cell proliferation), in words [1]: did not significantly modify
